According to PubChem BioAssay AID977628 (Broad Institute, 2014):
Records with an inconclusive call do not appear. The source made the active and inactive calls.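 How the source made its calls: active means compound lowering the normal-ribosome reporter at least twice as much as the humanized-ribosome reporter, growth loss under a set limit; inconclusive means no clear call, values can overlap the other calls; inactive means the rest.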

Tested on: E. coli WT GFP strain growth, fluorescence, 24 h
Assay: E. coli growth inhibition, wild-type GFP versus h24 humanized RFP strain, dose response, h24 mutant RFP vs wild-type GFP, cherry-pick (AID 977628)

CC(=O)c1ccc(N2CCN(C(=O)C3CCN(S(=O)(=O)c4ccc5c(c4)CC(C)N5C(C)=O)CC3)CC2)cc1 (stereo not given)
AC50: > 100 µM (inactive)

CCN(C(=O)COC(=O)c1ccc([N+](=O)[O-])o1)c1cccc2ccccc12
AC50: > 100 µM (inactive)

CC(=O)c1cccc(NC(=O)COC(=O)CCC(=O)c2ccc(F)cc2)c1
AC50: > 100 µM (inactive)

O=C(c1ccc(Cl)cc1)N1CCN(c2cccc3[nH]ccc23)CC1
AC50: > 100 µM (inactive)

COc1ccc(OC2C(=O)N(Cc3ccc4c(c3)OCO4)C2c2sccc2C)cc1 (stereo not given)
AC50: > 100 µM (inactive)

Cc1ccccc1S(=O)(=O)c1cc2ccccc2nc1N
AC50: > 100 µM (inactive)

Cc1cccc(CN2C(=O)c3ccccc3Sc3ccc(C(=O)O)cc32)c1
AC50: > 100 µM (inactive)

S=c1[nH]nc(-c2ccc3ccccc3n2)n1-c1ccc2c(c1)OCCO2
AC50: > 100 µM (inactive)

Cc1ccc2nc(SCC(=O)c3ccc(O)cc3O)[nH]c2c1
AC50: > 100 µM (inactive)

O=C1CCCN1CCCNc1ncnc2c1[nH]c1ccc(Cl)cc12
AC50: > 100 µM (inactive)

CSc1ccccc1NC(=O)CN(c1cccc(C)c1)S(C)(=O)=O
AC50: > 100 µM (inactive)

COc1ccc(OC)c(-c2nn(-c3ccccc3)cc2C(=O)N2CCc3ccccc3C2)c1
AC50: > 100 µM (inactive)

COc1cc(O)c2c(c1)/C=C/C[C@H](O)[C@H](O)C(=O)CCC[C@H](C)OC2=O
AC50: > 100 µM (inactive)

CCOC(=O)c1csc(NC(=O)CC2CCCC2)n1
AC50: > 100 µM (inactive)

COc1ccc(CNc2ccc([N+](=O)[O-])cc2C)cc1
AC50: > 100 µM (inactive)

COc1cccc(CNC(=O)CCSCc2ccccc2F)c1
AC50: > 100 µM (inactive)

Nc1nc(Nc2ccccc2F)nc(N2CCOCC2)c1[N+](=O)[O-]
AC50: > 100 µM (inactive)

O=C(Cc1cccc(NC(=O)C2CCN(C(=O)C3CCCCC3)CC2)c1)Nc1cccc(C(=O)N2CCCC2)c1
AC50: > 100 µM (inactive)

Cc1cccc(NC(=O)c2sc3nc(-c4ccccc4)cn3c2C)n1
AC50: > 100 µM (inactive)

COc1ccc2nc(SCC(=O)Nc3ccccc3)[nH]c2c1
AC50: > 100 µM (inactive)

COc1ccc2[nH]cc(CCNC(=O)C3CC(=O)N(c4ccc(Cl)cc4)C3)c2c1 (stereo not given)
AC50: > 100 µM (inactive)

COc1cccc(NC(=O)c2ccc(-c3ccc([N+](=O)[O-])cc3)o2)c1
AC50: > 100 µM (inactive)

O=C(NCc1nc2ccccc2[nH]1)c1ccc(S(=O)(=O)N2CCCC2)cc1
AC50: > 100 µM (inactive)

CCC(=O)c1ccc(OCC(=O)Nc2nc(C)cs2)cc1
AC50: > 100 µM (inactive)

CN1C(=O)c2ccccc2OC1(C)Cc1ccccc1 (stereo not given)
AC50: > 100 µM (inactive)

N#Cc1ccc(OCC(=O)N2CCN(S(=O)(=O)c3ccc(Cl)s3)CC2)cc1
AC50: > 100 µM (inactive)

Cc1cc(C(=O)NCCC2=CCCCC2)ccc1[N+](=O)[O-]
AC50: > 100 µM (inactive)

CCN(CC)CCN(C(=O)c1ccc2c(c1)OCCO2)c1nc2cc(C)cc(C)c2s1
AC50: > 100 µM (inactive)

Cc1nn(C(C)(C)C)c(OC(=O)CC(C)C)c1S(=O)(=O)c1ccccc1
AC50: > 100 µM (inactive)

COc1ccccc1Cn1c(=S)[nH]c2ccc(F)cc2c1=O
AC50: > 100 µM (inactive)

COc1ccc(CNS(=O)(=O)c2ccc3c(c2)NC(=O)C(C)S3)cc1 (stereo not given)
AC50: > 100 µM (inactive)

COC(=O)c1sccc1NC(=O)Cn1nnc(-c2ccccc2C)n1
AC50: > 100 µM (inactive)

CCc1nc2ccccc2n1CCc1ccccc1
AC50: > 100 µM (inactive)

O=C(C[n+]1cc(-c2ccc(Cl)c(Cl)c2)n2c1CCC2)OCc1ccccc1
AC50: > 100 µM (inactive)

CCOC(=O)C1CCCN(C(=O)c2csc(-c3ccc4c(c3)CCO4)n2)C1 (stereo not given)
AC50: > 100 µM (inactive)

Cc1cccc(OCCC(=O)N(C)CC(=O)Nc2cccc3ccccc23)c1
AC50: > 100 µM (inactive)

Cc1ccc(C(=O)Nc2cccc(N(C)S(C)(=O)=O)c2)cc1S(=O)(=O)Nc1ccccc1
AC50: > 100 µM (inactive)

CCOC(=O)Cc1csc(NC(=O)c2cc3ccccc3o2)n1
AC50: > 100 µM (inactive)

COCCCn1c(C)cc(C(=O)COC(=O)CCc2nc3ccccc3c(=O)[nH]2)c1C
AC50: > 100 µM (inactive)

CCOC(=O)c1cnc2c(ccc3ccccc32)c1NCCCN(C)C
AC50: > 100 µM (inactive)

Cc1ccc(C(=O)C2CCN(CC(=O)Nc3nc(C)cs3)CC2)cc1
AC50: > 100 µM (inactive)

CC(=O)OC1N=C(c2ccccc2Cl)c2cc(Br)ccc2NC1=O (stereo not given)
AC50: > 100 µM (inactive)

O=C(O)CCN(Cc1ccccc1)S(=O)(=O)c1ccccc1Cl
AC50: > 100 µM (inactive)

C[C@@H]1CCCCO[C@@H](CN(C)C(=O)c2ccccc2)[C@H](C)CN([C@@H](C)CO)C(=O)c2cc(NC(=O)c3ccccc3)ccc2O1
AC50: > 100 µM (inactive)

Cc1ccc(N2C(=O)NC(NS(=O)(=O)c3ccccc3)(C(F)(F)F)C2=O)cc1C (stereo not given)
AC50: > 100 µM (inactive)

O=C(CN1CCCCC1)Nc1ccccc1-c1ccccc1
AC50: > 100 µM (inactive)

CC(=O)N1CCOc2ccc(S(=O)(=O)N(C)c3ccc(C)cc3)cc21
AC50: > 100 µM (inactive)

CCOC(=O)c1cccc(OS(=O)(=O)Cc2ccccc2)c1
AC50: > 100 µM (inactive)

Cc1ccc(C2NC(=O)c3[nH]nc(-c4ccccc4)c32)cc1 (stereo not given)
AC50: > 100 µM (inactive)

Cc1cc(Br)ccc1NC(=O)c1ccco1
AC50: > 100 µM (inactive)

CCC(C(=O)NCCc1ccc(C)cc1)n1nc(C)c2c(C)n(-c3ccccc3)nc2c1=O (stereo not given)
AC50: > 100 µM (inactive)

COc1ccc(OC)c(-c2nnc3n2N=C(c2ccc(OC)c(OC)c2)CS3)c1
AC50: > 100 µM (inactive)

COc1ccc(N2C(=O)C3C(C2=O)C3(c2ccccc2)c2ccccc2)cc1 (stereo not given)
AC50: > 100 µM (inactive)

O=C(O)CSc1nnc(-c2ccc(Cl)cc2Cl)n1-c1ccc(Br)cc1
AC50: > 100 µM (inactive)

N#Cc1ccc(C(=O)Nc2ccn(-c3ccccc3)n2)cc1
AC50: > 100 µM (inactive)

O=C(Nc1ccc2c(c1)OCO2)c1ccc([N+](=O)[O-])cc1[N+](=O)[O-]
AC50: > 100 µM (inactive)

O=C(Nc1ccc2c(c1)OCCO2)c1cccnc1Oc1ccc(Cl)cc1
AC50: > 100 µM (inactive)

O=C(O)c1cc2ccc3ccccc3c2[nH]1
AC50: > 100 µM (inactive)

O=C(CCc1nc2ccccc2s1)OCC(=O)c1ccc[nH]1
AC50: > 100 µM (inactive)

COc1cccc(C2c3cc4c(cc3OC(N3CCCC3)C2C)OCO4)c1O (stereo not given)
AC50: > 100 µM (inactive)

C=CCn1c(C)cc(C(=O)COC(=O)CNC(=O)c2ccccc2)c1C
AC50: > 100 µM (inactive)

O=C1c2ccccc2C(=O)N1CCc1c[nH]c2ccccc12
AC50: > 100 µM (inactive)

O=C(Nc1cc(F)ccc1F)N1CCCCN2[C@@H](CO)[C@H](c3ccc(-c4ccncc4)cc3)[C@@H]2C1
AC50: > 100 µM (inactive)

O=C(CCC(=O)N1CCN(c2ccc(F)cc2)CC1)N1CCN(c2ccc(F)cc2)CC1
AC50: > 100 µM (inactive)

O=C(Nc1ccc2nc(-c3ccccc3)[nH]c2c1)c1cccs1
AC50: > 100 µM (inactive)

COc1ccc2[nH]c3c(=O)n(CCCCC(=O)NCCC(C)C)c(=S)[nH]c3c2c1
AC50: > 100 µM (inactive)
AC50 (measured here: WT GFP, test 1): > 100 µM

CCCCCCCNC(=O)c1ccc(N2CCC3(CC2)OCCO3)c([N+](=O)[O-])c1
AC50: > 100 µM (inactive)

O=C(C[C@H]1CC[C@@H]2[C@H](COC[C@@H](O)CN2C(=O)Nc2cc(Cl)cc(Cl)c2)O1)N1CCOCC1
AC50: > 100 µM (inactive)

O=C(Cn1cnc2ccccc21)c1ccc(Br)cc1
AC50: > 100 µM (inactive)

COc1cc(NC(=O)C(c2ccccc2)c2ccccc2)c(C(=O)O)cc1OC
AC50: > 100 µM (inactive)

O=c1[nH]c(C2CCN(S(=O)(=O)c3ccc4c(c3)OCCO4)CC2)nc2c1nnn2Cc1ccccc1F
AC50: > 100 µM (inactive)

NC(=O)c1nsc(C(=O)N(c2ccccc2F)C(C(=O)NCc2ccc(F)cc2)c2ccc(O)cc2)c1N (stereo not given)
AC50: > 100 µM (inactive)

O=C1NC(=O)C2(Cc3cc([N+](=O)[O-])ccc3N3CCN(C(=O)c4ccccc4)CC32)C(=O)N1 (stereo not given)
AC50: > 100 µM (inactive)

COc1ccc(CNc2cc([N+](=O)[O-])ccc2OC)cc1
AC50: > 100 µM (inactive)

CN(C)CCN(C(=O)c1ccc2c(c1)CCCC2)c1nc2c(F)cccc2s1
AC50: > 100 µM (inactive)

Cc1ccoc1C(=O)Nc1ccc2ccccc2c1
AC50: > 100 µM (inactive)

O=C(CN1CCC(n2nnc3cc(F)ccc32)CC1)N1CCc2ccccc2C1
AC50: > 100 µM (inactive)

Cc1cc(Br)ccc1SCC(=O)OCC(=O)NCc1ccco1
AC50: > 100 µM (inactive)

CCCn1nnnc1NCc1ccccc1OCc1cccs1
AC50: > 100 µM (inactive)

O=C1Nc2ccc(F)cc2C12Nc1ccccc1-c1nnc(SCc3ccccc3)nc1O2 (stereo not given)
AC50: > 100 µM (inactive)

COc1ccc(-c2csc3ncn(-c4ccc(C)cc4)c(=O)c23)cc1OC
AC50: > 100 µM (inactive)

O=C(Cc1cccc2ccccc12)Nc1ccccc1C(=O)O
AC50: > 100 µM (inactive)

Cc1nn(S(=O)(=O)c2ccc(Cl)cc2)c(C)c1Sc1ccc([N+](=O)[O-])cc1
AC50: > 100 µM (inactive)

CC(Nc1ncnc2ccccc12)c1ccccc1 (stereo not given)
AC50: > 100 µM (inactive)

COc1cc2nc(Nc3ccc(F)cc3)nc(N)c2cc1OC
AC50: > 100 µM (inactive)

Fc1ccc(-c2nnc(-c3ccc4ccccc4c3)o2)cc1
AC50: > 100 µM (inactive)

CCN(CC)S(=O)(=O)c1cccc(NC(=O)CNc2cccc(S(=O)(=O)N3CCCC3)c2)c1
AC50: > 100 µM (inactive)

O=C(Nc1cccc(-c2cn3ccccc3n2)c1)c1ccccc1
AC50: > 100 µM (inactive)

CCOc1ccc2nc(NC(=O)CSc3nc(SC)ns3)sc2c1
AC50: > 100 µM (inactive)

CCCCn1c(NS(=O)(=O)c2ccc(C)cc2)c(C(=O)OCC)c2nc3ccccc3nc21
AC50: > 100 µM (inactive)

COc1ccc(C(=O)C2CCCN(C(=O)c3noc4c3CCCC4)C2)cc1F (stereo not given)
AC50: > 100 µM (inactive)

COc1ccccc1-c1cc2nc(NCCc3ccncc3)ccn2n1
AC50: > 100 µM (inactive)

CCC(=O)Nc1nc2ccc(NC(=O)c3cc(OC)c(OC)c(OC)c3)cc2s1
AC50: > 100 µM (inactive)

O=C(NCc1ccccc1Cl)[C@H]1CCCN1C(=O)[C@H]1CCCN1C(=O)c1cccc2ccccc12
AC50: > 100 µM (inactive)
